Here are results for 9 molecules from patent US7387779B2, “Anti-angiogenic proteins and fragments and methods of use thereof” (Beth Israel Deaconess Medical Center, priority 1998, dated 2008).

One test has as its system HUVEC cells. Kind of test: Cell adhesion assay with integrin blocking antibodies. In kind it is cell-based, human. Particulars: label = plate coating; 10 μg/ml antibody. As to the method: (§1) The attachment of HUVECs to Tumstatin-coated plates in the presence of integrin subunits α1 through α6, β1, and αvβ3 integrin blocking antibody was examined. This assay was performed according to the method of Senger et al. (Senger, D. R. et al, 1997, Proc. Natl. Acad. Sci. USA 94:13612-7), with minor modification. 96-well plates were coated with either human Tumstatin, mouse laminin-1, or human Type IV collagen (Collaborative Biomedical Prods., Bedford, Mass., USA) at a concentration of 10 μg/ml overnight at 37° C. Vitronectin (Collaborative Biomed. Prods.) at a concentration of 0.5 μg/ml was then used to coat the plates. The remaining protein binding sites were blocked with 100 mg/ml of BSA (Sigma Chemical Co., St. Louis, Mo., USA) in PBS for 2 hours. HUVEC cells were grown to subconfluence (70-80%) in EGM-2 medium, gently trypsinized and resuspended in serum-free medium (1.5×10^5 cells/ml). The cells were mixed with 10 μg/ml of either mouse IgG, (control) (Life Technologies/Gibco BRL, Gaithersberg, Md., USA) or antibody (mouse monoclonal antibody to the human β1 integrin (clone P4C10) (Life Technologies/Gibco BRL); monoclonal antibody to human integrins α1 through α.6 (CHEMICON Int'l, Temecula, Calif., USA); αvβ3 integrin (clone LM609) (CHEMICON Int'l) and incubated for 15 minutes at room temperature, with gentle agitation. One hundred microliters of the cell suspension was then added to each well and incubated for 45 minutes at 37° C. Unattached cells were removed by washing, and the number of attached cells were counted after staining with methylene blue. C-PAE cells were used in separate experiments, following the above procedure.
(§2) Cell Attachment Activity: Cell attachment using endothelial cells was performed as described above. HUVEC or C-PAE cells were incubated with monoclonal anti-human integrin antibodies, control mouse IgG (10 μg/ml), or synthetic peptide, plated onto pre-coated 96-well plates, and the number of cells attaching to the plates was determined using measurement of methylene blue staining at OD655. […] CNGRC peptide was used as a control.
(§3) The cell attachment assay was performed as described above.

Test [1] concerns C-PAE cells. Kind of test: Endothelial cell proliferation, methylene blue staining. In kind it is cell-based, bovine. The following applies: 10 μg/ml; 20% FCS. The procedure: A methylene blue staining test was also done. 3,100 cells were added to each well and treated as above, and cells were then counted using the method of Oliver et al. (Oliver, M. H. et al., 1989, J. Cell. Science 92:513-18). All wells were washed one time with […] of 1×PBS and the cells were fixed by adding […] of 10% formalin in neutral-buffered saline (Sigma Chemical Co., St. Louis, Mo., USA) for 30 minutes at room temperature. After formalin removal cells were stained with a solution of 1% methylene blue (Sigma Chemical Co.) in 0.01 M borate buffer (pH 8.5) for 30 minutes at room temperature. After removal of staining solution, the wells were washed 5 times with […] of 0.01 M borate buffer (pH 8.5). Methylene blue was extracted from the cells with […] of 0.1N HCi/ethanol (1:1 mixture) for 1 hour at room temperature. The amount of methylene blue staining was measured on a microplate reader (BioRad, Hercules, Calif., USA) using light absorbance at 655 nm wavelength.
In the methylene-blue staining method, 7000 cells were plated into each well of a 96-well plate, and treated as described above. Cells were then counted using the method of Oliver et al. (1989, J. Cell. Sci. 92:513-8). After 48 hours of treatment, all wells were washed with 100 μl of PBS, and the cells fixed with 10% formalin in neutral-buffered saline (Sigma Chemical Co., St. Louis, Mo., USA). The cells were then stained with 1% methylene blue (Sigma) in 0.01M borate buffer, pH 8.5. Wells were washed with 0.01M borate buffer, and the methylene blue extracted from the cells with 0.1N HCl/ethanol, and the absorbance measured in a microplate reader (Bio-Rad, Hercules, Calif., USA) at 655 nm. Polymyxin B (Sigma) at a final concentration of 5 μg/ml was used to inactivate endotoxin (Liu, S. et al., 1997, Clin. Biochem. 30:455-63).
Proliferation of endothelial cells (C-PAE cells) and WM-164 melanoma cells was assayed by methylene blue staining, as described above in Examples 25 and 34. The results are shown in FIGS. 33A and 33B, which are a pair of graphs showing the effect of increasing concentration (x-axis) of Tumstatin, Tum-1, Tum-2, Tum-3 and Tum-4 on the relative number (y-axis) of C-PAE cells (FIG. 33A) and WM-164 cells (FIG. 33B). […] Tum-4, however, did have anti-proliferative activity in this cell line. […] Only Tum-4 inhibited WM-164 melanoma cells.
For the proliferation assay, Canstatin, Can-1 and Can-2 soluble proteins (0.1-20.0 μg/ml) were added to the growth medium of proliferating C-PAE cells, which were stimulated with 10% FBS in DMEM, in addition to 5 ng/ml bFGF and 3 ng/ml VEGF. The results are shown in FIG. 40, which is a graph showing the effect of increasing concentrations of Canstatin (♦), Can-1 (▪) and Can-2 (▴) (x-axis) on the relative cell number (y-axis) of C-PAE cells. Each concentration of each protein was tested in quadruplicate. Bovine serum albumin (BSA) was used as a control treatment. Polymyxin B was used to control for endotoxin interference, and no differences were found between assays run with and without polymyxin B added to the medium. Cells were allowed to proliferate for 48 hours, and were then fixed, stained and the density read with a Bio-Rad plate reader (Bio-Rad, Hercules, Calif., USA). Canstatin and Can-1 both caused dose-dependent decreases in the percent cell number, and both reduced the number of cells by 80% at concentrations of 5 μg/ml and higher.
An endothelial cell proliferation assay was used to compare the activity of Tumstatin and some of the deletion mutants. Recombinant Tumstatin (28 kDa), Tumstatin-44-131 (12 kDa) and T3 peptide were used in a methylene blue proliferation assay in equimolar concentrations.

A further test relates to PC3 tumor xenografts. Kind of test: PC3 human prostate tumor xenograft (Example 58). Type of test: in vivo, nude NCRNU mice. The following applies: 5.0 mg/kg i.p. daily, 3 weeks. The procedure:
Male nude NCRNU mice, 5-6 weeks old, weighing approximately 25 grams, 6 were implanted with 2×10^6 PC3 cells into the dorsal subcutis. When the tumors were 60 mm^3, the animals were pair-matched into treatment and control groups. Each group contained 6-7 tumored mice, each of which was ear-tagged and followed individually throughout the experiment. Initial doses of peptide or vehicle control were given on the day of pair-matching (Day 0), and were administered via intraperitoneal (i.p.) injection at doses indicated. Mice were weighed weekly, and tumor measurements were taken by calipers weekly. These tumor measurements were converted to tumor volume by a well-known formula, (V=W^2×L/2), and mean tumor volumes were plotted against time. Mice were euthenized at the end of the treatment period. Upon termination, the mice were weighed, sacrificed and their tumors were excised. The mean tumor weight per group was calculated, and the value of mean treated tumor volume or volume ratio/mean control tumor volume or volume ratio×100 was subtracted from 100% to give the tumor growth inhibition (TG1) for each group. All groups received injections I.P. daily, except for two T8-treated groups, which were treated twice per week and once a week, respectively.
On the technique in general: In xenograft studies the graft and the host belong to different species.

In test [2] the test system is C-PAE cells. Kind of test: Cell attachment assay. In kind it is cell-based, bovine. The following applies: for attachment of endothelial cells onto vitronectin-coated plates in the presence of peptide: 5 μg/ml. As to the method: as §1
To determine the attachment of C-PAE cells to plates coated with the Tumstatin deletion mutants, the cell attachment assay was performed as described above (see, e.g., Example 28). Rabbit antibody raised against Tum-4 was prepared as previously described (Kalluri et al., 1997, J. Clin. Invest. 99:2470-8). Goat anti-rabbit IgG antibody conjugated with horseradish peroxidase was purchased from Sigma Chemical Company (St. Louis, Mo., USA). […] Plates coated with Tum-1 (FIG. 36A) were also treated with anti-Tum-4 antibody (1:200 dilution) to block the previously reported (Shahan et al, 1999, Cancer Res. 59:4584-90) αvβ3 binding site, as well as the αvβ5 binding site.
as §2, §3
Tumstatin produced in 293 human embryonic kidney cells was used to coat tissue culture plates. […] PBS and BSA served as positive and negative controls, respectively.

In test [3] the test system is C-PAE cells. Kind of test: Cell cycle analysis (propidium iodide, flow cytometry). In kind it is cell-based, bovine. The procedure: To further evaluate the mechanism of T3 peptide on endothelial cell proliferation, the effect of T3 peptide on cell cycle progression was analyzed. In the growth arrested and contact inhibited cells (0 hour), 4.1% of cells were in S phase. […] This was true even at a maximal dosage of 100 μg/ml. The effect of the T3 peptide was dose-dependent, however, with the percentage of cells in S phase at 21.4% at 10 μg/ml, and 20.5% at 25 μg/ml. The percentage of cells in G0/G1 phase was 88.3% at 0 hour, 53.4% for the bFGF control, and 57.6%, 57.6% and 71.0% for treatments with T1, T6 and T3 peptide, respectively. […] Apoptotic Activity: Peptides T2, T3, T4, T5 and T6 (10 μg/ml concentration) were tested for their effect of viability of C-PAE cells using the MTT assay, as described in Examples 32 and 36 above. The results are shown in FIG. 43D, which is a histogram showing cell viability as measured at OD595 (y-axis), and treatments with the synthetic peptides (x-axis). […] TNF-α (100 ng/ml) was used to serve as a positive control in inducing endothelial cell apoptosis.
The effect of Tumstatin-44-131 and Tum-5-125-C-A on the cell cycle were assayed similarly to Example 4 above. Briefly, C-PAE cells were growth arrested by contact inhibition for 48 hours. The cells, at 10^5 cells per well, were then harvested and plated into a 12-well plate coated with fibronectin in 5% FCS and either recombinant Tumstatin-44-131 or Tum-5-125-C-A. After 21 hours, the cells were harvested and fixed in 70% ice-cold ethanol. The fixed cells were rehydrated a room temperature for 30 minutes in PBS containing 2% FCS and 0.1% Tween-20, centrifuged and resuspended in 0.5 ml of the same buffer. RNase (5 μg/ml) digestion was done at 37° C. for one hour, followed by staining with propidium iodide (5 μg/ml). The cells were then counted using an EPICS XL-MCL flow cytometer (Beckman-Coulter Instruments, Fullerton, Calif., USA).
(In flow cytometry, cells or beads pass a laser one at a time.)

For the molecule “laminin-1: mouse laminin-1, control plate coating [reference compound]”, in the test with HUVEC cells, the “inhibition of HUVEC attachment to coated plates by α5 antibody” value was 50% and the “inhibition of HUVEC attachment to coated plates by α6 antibody” value is 89%.
For the molecule “DVCNFASRNDYSYWLSTPAL (T4 (amino acids 83-102 of SEQ ID NO10))”, the “inhibition of endothelial cell proliferation by synthetic peptides” value with C-PAE cells [1] was “no inhibitory activity”.
Consider “ANMSRNVFFDCTSFPVCQKFLNDTRNY (Scrambled peptide SP1) [reference compound]”, for which the “% Tumor growth inhibition” value in the test with PC3 tumor xenografts came out at 31.7%. For the same molecule, the “Final Tumor Weight (V/Vo) ± SEM” value with PC3 tumor xenografts (T7 vehicle 5.626 ± 0.38, T8 vehicle 6.278 ± 1.483) stood at 4.284 ± 1.244.
Regarding “NQRAHGQDLGTLGSCLQRFT (T2 (amino acids 53-72 of SEQ ID NO10))”, the “inhibition of endothelial cell proliferation by synthetic peptides” value in the test on C-PAE cells [1] is given as “nor did it inhibit endothelial cell proliferation”.
Take “CDCRGDCFC (synthetic blocking peptide) [reference compound]”: the “attachment of endothelial cells onto vitronectin-coated plates in the presence of peptide” value in the test on C-PAE cells [2] is listed as “inhibited attachment”.
In the case of “RALEPYISRCTVCEGPAIA (T6 (amino acids 113-131 of SEQ ID NO10))”, the “percentage of cells in S phase” value in the test with C-PAE cells [3] (bFGF 24 hours (control 22.1%), T1 or T6, maximal dosage of 100 μg/ml) was determined as 21.2%. In the test on C-PAE cells [3] (bFGF control 53.4%), the “percentage of cells in G0/G1 phase” value is on record as 57.6%. For the same molecule, the “binding to vitronectin-coated plates (2.5 μg/ml) in the presence of peptide” value in the test on C-PAE cells [2] (0.1, 1.0, 10.0 μg/ml peptide) is “did not inhibit attachment”.
Take “CNGRC (synthetic blocking peptide) [reference compound]”: in the test with C-PAE cells [2], the “attachment of endothelial cells onto vitronectin-coated plates in the presence of peptide” value is “did not show such inhibition”.

B1: Tum-5: residues 54 to 132 of Tumstatin (SEQ ID NO:26) (protein)
chain: QRAHGQDLGTLGSCLQRFTTMPFLFCNVNDVCNFASRNDYSYWLSTPALMPMNMAPITGRALEPYISRCTVCEGPAIAI
modifications: Tum-5 (amino acids 54-132 of SEQ ID NO10)
For B1, the “inhibition of HUVEC attachment to coated plates by αvβ3 antibody” value with HUVEC cells was “significantly inhibited”. Moreover, the “attachment to coated plates in the presence of RGD peptide ([…])” value in the test with C-PAE cells [2] (label = plate coating) is “not inhibited”.

B2: vitronectin: control plate coating (protein)
chain: DQESCKGRCTEGFNVDKKCQCDELCSYYQSCCTDYTAECKPQVTRGDVFTMPEDEYTVYDDGEEKNNATVHEQVGGPSLTSDLQAQSKGNPEQTPVLKPEEEAPAPEVGASKPEGIDSRPETLHPGRPQPPAEEELCSGKPFDAFTDLKNGSLFAFRGQYCYELDEKAVRPGYPKLIRDVWGIEGPIDAAFTRINCQGKTYLFKGSQYWRFEDGVLDPDYPRNISDGFDGIPDNVDAALALPAHSYSGRERVYFFKGKQYWEYQFQHQPSQEECEGSSLSAVFEHFAMMQRDSWEDIFELLFWGRTSAGTRQPQFISRDWHGVPGQVDAAMAGRIYISGMAPRPSLAKKQRFRHRNRKGYRSQRGHSRGRNQNSRRPSRATWLSLFSSEESNLGANNYDDYRMDWLVPATCEPIQSVFFFSGDKYYRVNLRTRRVDTVDPPYPRSIAQYWLGCPAPGHL
Consider B2, for which the “inhibition of HUVEC attachment to coated plates by αvβ3 antibody” value with HUVEC cells is 61%.
